Measurements published in paper PMC4146346 (Journal of cellular physiology, 2012).

Experiments:
Assay in all cases: whole-cell patch clamp in HEK-293
Format in all cases: cell-based
CaV3.2 (α1H) = CaV3.2 (α1H) (Homo sapiens, UniProt O95180)
CaV3.1 (α1G) = CaV3.1 (α1G) (Homo sapiens, UniProt O43497)
CaV3.3 (α1I) = CaV3.3 (α1I) (Homo sapiens, UniProt Q9P0X4)

Chain of CaV3.1 (α1G) (O43497 whole entry): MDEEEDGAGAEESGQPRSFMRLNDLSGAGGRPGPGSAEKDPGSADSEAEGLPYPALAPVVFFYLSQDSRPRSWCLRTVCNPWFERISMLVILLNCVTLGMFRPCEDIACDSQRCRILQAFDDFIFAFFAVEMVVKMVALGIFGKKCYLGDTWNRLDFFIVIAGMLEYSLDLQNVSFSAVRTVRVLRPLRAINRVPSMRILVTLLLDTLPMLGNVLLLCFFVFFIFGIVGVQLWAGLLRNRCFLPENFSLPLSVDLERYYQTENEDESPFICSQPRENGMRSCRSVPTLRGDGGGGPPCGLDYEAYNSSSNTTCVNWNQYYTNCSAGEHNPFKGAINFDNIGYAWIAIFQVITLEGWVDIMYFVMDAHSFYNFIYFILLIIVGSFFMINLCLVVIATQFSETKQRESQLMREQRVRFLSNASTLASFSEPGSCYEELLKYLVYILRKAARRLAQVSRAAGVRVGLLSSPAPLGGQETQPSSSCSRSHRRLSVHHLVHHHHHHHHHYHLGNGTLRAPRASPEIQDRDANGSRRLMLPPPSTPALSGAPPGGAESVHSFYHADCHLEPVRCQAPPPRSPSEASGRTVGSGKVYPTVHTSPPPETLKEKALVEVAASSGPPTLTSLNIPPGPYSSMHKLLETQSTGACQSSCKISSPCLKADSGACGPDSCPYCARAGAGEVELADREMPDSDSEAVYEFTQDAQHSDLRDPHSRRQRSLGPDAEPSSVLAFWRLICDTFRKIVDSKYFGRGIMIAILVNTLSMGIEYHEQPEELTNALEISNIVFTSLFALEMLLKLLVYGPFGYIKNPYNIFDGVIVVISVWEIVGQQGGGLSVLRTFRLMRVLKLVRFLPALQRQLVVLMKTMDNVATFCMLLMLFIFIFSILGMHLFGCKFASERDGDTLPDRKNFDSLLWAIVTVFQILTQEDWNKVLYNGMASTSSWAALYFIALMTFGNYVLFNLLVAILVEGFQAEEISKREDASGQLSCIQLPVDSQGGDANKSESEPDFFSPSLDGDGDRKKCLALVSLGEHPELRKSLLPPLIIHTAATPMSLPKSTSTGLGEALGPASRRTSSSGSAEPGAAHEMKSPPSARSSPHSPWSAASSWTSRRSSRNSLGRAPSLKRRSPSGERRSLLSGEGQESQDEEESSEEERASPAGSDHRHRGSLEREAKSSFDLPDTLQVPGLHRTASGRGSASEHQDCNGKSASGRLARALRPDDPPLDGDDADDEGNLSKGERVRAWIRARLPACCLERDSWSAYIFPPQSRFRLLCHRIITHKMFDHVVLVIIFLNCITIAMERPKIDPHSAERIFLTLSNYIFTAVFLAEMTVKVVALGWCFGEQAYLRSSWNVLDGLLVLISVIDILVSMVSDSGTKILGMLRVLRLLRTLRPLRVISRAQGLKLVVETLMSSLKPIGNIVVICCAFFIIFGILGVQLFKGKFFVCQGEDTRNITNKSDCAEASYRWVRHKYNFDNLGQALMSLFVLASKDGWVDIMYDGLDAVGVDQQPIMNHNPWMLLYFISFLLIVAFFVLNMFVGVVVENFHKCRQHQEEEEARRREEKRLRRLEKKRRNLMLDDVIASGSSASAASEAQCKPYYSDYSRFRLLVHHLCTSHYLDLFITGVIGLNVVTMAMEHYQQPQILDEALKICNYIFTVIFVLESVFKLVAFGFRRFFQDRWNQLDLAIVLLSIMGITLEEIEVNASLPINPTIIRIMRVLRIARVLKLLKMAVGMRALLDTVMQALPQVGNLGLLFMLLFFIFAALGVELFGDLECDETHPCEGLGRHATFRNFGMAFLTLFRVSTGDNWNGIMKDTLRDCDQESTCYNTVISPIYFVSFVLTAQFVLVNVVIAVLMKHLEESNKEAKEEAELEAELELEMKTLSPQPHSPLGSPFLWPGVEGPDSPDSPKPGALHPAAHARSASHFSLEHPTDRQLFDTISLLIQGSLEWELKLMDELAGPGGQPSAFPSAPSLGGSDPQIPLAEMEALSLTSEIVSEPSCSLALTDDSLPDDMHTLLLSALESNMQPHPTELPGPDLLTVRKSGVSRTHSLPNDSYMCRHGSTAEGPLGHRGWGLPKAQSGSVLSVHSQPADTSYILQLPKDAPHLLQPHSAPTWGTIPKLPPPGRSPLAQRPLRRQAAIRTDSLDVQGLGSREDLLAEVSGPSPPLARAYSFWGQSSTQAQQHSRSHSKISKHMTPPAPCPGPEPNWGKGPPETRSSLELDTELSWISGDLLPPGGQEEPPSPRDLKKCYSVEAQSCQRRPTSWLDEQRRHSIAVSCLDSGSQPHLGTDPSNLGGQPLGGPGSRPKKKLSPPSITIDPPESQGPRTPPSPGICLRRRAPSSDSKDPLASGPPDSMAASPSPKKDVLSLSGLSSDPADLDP
Chain of CaV3.2 (α1H) (O95180 whole entry): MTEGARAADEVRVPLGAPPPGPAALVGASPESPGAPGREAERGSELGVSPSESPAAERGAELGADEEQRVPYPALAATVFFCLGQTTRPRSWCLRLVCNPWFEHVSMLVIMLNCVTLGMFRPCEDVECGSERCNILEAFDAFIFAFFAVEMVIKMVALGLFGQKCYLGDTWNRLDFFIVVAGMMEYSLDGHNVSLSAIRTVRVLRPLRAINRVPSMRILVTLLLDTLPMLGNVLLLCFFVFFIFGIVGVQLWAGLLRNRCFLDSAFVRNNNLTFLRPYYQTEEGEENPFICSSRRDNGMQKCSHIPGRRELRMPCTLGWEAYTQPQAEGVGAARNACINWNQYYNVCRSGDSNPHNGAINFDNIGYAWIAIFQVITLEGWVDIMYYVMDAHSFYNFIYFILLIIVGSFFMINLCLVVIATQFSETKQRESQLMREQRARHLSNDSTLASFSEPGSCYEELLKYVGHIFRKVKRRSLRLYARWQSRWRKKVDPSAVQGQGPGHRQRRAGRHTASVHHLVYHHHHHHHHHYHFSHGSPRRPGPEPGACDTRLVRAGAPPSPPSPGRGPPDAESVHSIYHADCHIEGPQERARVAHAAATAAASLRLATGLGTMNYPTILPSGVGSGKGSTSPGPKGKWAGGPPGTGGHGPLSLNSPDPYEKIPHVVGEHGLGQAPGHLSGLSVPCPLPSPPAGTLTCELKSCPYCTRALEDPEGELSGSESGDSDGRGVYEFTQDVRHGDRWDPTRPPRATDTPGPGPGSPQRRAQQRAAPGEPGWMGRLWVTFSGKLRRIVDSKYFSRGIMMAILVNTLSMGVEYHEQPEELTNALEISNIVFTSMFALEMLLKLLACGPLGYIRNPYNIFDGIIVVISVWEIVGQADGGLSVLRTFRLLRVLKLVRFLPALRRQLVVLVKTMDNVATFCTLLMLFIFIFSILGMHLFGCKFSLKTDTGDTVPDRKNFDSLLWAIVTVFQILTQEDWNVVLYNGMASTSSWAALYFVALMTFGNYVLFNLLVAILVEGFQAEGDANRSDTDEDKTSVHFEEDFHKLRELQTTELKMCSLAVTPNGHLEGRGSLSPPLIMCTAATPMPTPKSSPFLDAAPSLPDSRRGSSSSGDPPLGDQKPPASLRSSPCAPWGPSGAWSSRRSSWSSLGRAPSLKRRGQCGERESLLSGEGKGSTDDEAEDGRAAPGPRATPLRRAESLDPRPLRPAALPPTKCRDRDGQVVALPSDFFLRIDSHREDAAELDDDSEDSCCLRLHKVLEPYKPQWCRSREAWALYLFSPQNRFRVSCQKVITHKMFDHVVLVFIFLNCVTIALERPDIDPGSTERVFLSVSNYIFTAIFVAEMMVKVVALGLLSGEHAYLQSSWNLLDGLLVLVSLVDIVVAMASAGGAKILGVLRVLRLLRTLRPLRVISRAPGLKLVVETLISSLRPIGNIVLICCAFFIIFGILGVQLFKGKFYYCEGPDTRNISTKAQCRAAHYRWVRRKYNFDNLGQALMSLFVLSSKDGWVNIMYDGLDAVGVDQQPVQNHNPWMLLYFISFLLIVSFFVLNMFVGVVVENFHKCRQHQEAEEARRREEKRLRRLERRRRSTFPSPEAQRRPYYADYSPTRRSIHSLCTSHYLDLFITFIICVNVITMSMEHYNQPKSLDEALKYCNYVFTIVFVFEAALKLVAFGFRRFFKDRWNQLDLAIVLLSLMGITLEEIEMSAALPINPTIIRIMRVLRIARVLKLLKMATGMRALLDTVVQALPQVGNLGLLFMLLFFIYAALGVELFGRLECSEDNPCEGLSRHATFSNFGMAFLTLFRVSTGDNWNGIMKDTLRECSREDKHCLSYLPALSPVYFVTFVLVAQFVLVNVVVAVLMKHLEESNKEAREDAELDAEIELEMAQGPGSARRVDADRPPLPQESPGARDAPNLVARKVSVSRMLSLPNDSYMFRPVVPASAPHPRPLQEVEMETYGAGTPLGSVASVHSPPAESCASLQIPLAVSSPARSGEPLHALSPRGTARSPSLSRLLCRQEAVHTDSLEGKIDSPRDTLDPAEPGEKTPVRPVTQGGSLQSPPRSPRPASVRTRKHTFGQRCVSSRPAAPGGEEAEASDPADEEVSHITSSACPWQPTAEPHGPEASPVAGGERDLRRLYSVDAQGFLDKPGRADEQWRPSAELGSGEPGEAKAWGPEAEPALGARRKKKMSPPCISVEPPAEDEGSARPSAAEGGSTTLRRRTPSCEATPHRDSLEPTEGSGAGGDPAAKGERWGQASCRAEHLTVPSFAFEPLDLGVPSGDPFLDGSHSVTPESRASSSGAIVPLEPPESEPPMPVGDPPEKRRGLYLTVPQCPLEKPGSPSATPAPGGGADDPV

O=C(O)c1cccnc1Nc1cccc(C(F)(F)F)c1 [NA, 2-{[3-(trifluoromethyl)phenyl]amino}-pyridine-3-carboxylic acid]
Kd (CaV3.2 (α1H)): 192 µM | Kd (CaV3.1 (α1G)): 78.4 µM | Kd (CaV3.3 (α1I)): 137 µM
